According to patent US9539257B2, “Method of treating cancer” (NOVARTIS AG, priority 2009, dated 2017):
“And” between values parts separate entries of the source, which are not always exact repeats. Identical values can stand only once. Like-named read-outs stand apart in the source and are kept apart here.

How the values were obtained:
[1] = test system: HLA-DRB1*0701
Procedure: The two phenotypes that were evaluated were maximum on-treatment liver chemistry values for ALT and TBL with respect to the upper limit of normal. These phenotypes were evaluated separately in case-control and quantitative trait analyses and jointly in a combined case-control analysis. ALT and TBL cases were defined as maximum on-treatment elevations of ≧3×ULN and ≧1.5×ULN, respectively, and control subjects were defined as maximum on-treatment ALT or TBL of ≦1×ULN. Approximately 950 patients with an adequate, fully consented DNA sample had available clinical data for these phenotypes. After subject genotyping quality control was completed, a total of 947 patients remained for pharmacogenetic analyses on at least one genetic variant.
Evaluation of HLA genes focused on a subset of the total number of patients consisting of all ALT cases (N=47) and matched controls (N=47).

[2] = On-treatment liver chemistry (ALT, TBL, ALP), confirmatory study PGx population, lapatinib plus letrozole phase III trial; assay type: in vivo, human
[3] = test system: HLA-DQB1*0202
Procedure: (§1) The two phenotypes that were evaluated were maximum on-treatment liver chemistry values for ALT and TBL with respect to the upper limit of normal. These phenotypes were evaluated in both case-control and quantitative trait analyses while key associations were examined qualitatively in the combined ALT/TBL cases. ALT and TBL cases were defined as maximum on-treatment elevations of ≧3×ULN and ≧1.5×ULN, respectively, and control subjects were defined as maximum on-treatment ALT or TBL of ≦1×ULN. […] Approximately 370 patients with an adequate, fully consented DNA sample had available clinical data for these phenotypes.
(§2) Germline DNA was extracted from peripheral blood (QiAmp DNA Blood Kit, Qiagen, Valencia, Calif.). This study evaluated candidate gene and genome-wide screening, performed in parallel, to detect case-control association signals in the exploratory cohort. Class I and II HLA genes (seven genes to 4-digit and three genes to 2-digit resolution) were typed by Laboratory Corporation of America (Burlington, N.C.) and Histogenetics (Ossining, N.Y.), or at GSK using the LABType® SSO Typing Test (One Lambda, Canoga Park, Calif.). […] Whole genome screen genotyping on the Illumina Human 1M-Duo platform was also conducted (Expression Analysis, Durham, N.C.).
(§3) For the exploratory study, initial analysis of the GWAS was done using logistic regression, carried out in PLINK (Purcell S, et al. American Journal of Human Genetics 2007; 81, 559-575) using the genotypic test option when three genotype classes were observed, or the additive test option when only two genotype classes were observed. […] In addition to the genotype term, all models included baseline ALT xULN, treatment group (for the exploratory study), and a sufficient number of principal components to account for potential confounding by population structure. Principal components were obtained from EIGENSOFT (Patterson N. et al. PLoS Genetics 2006; 2: e190), using study subjects and HapMap founders.
(§4) Genetic markers selected for confirmatory were required to achieve pre-defined p-value thresholds in the exploratory analysis of p≦0.05 for HLA markers, p≦0.01 for candidate gene markers and p≦10-4 for whole genome screen SNPs. For markers confirmed at p≦0.01, measures of potential clinical utility were evaluated. An allele or genotype(s) was designated which conferred a higher risk of ALT elevation and this was compared to the non-risk allele(s)/genotype(s) and the odds ratio (OR), positive predictive value (PPV), and negative predictive value (NPV) calculated.

[4] = test system: HLA-DQA1*0201; conditions: for HLA-DQA1*0201 Carrier: Non Cases (number) / HLA-DQA1*0201 Non-Carrier: Non Cases (number) / HLA-DQA1*0201 Carrier: Cases (number) / HLA-DQA1*0201 Non-Carrier: Cases (number) / NPV (CI) / OR (CI) / PPV (CI): confirmatory cohort; for NPV (CI) / OR (CI) / PPV (CI): HLA-DQA1*0201 carriage, cases vs non-cases
Procedure: as §1, §2, §3, §4

[5] = test system: HLA-DRB1*0701; remark: listed apart in the source
Procedure: as §1, §2, §3, §4

[6] = Confirmatory Study ALT Cases (N=24)
[7] = Confirmatory Study ALT Cases with HLA Data Available, at time of maximum ALT
[8] = Confirmatory Study ALT Controls (N=155)
[9] = Confirmatory Study PGx Population (1 trial, N=374), lapatinib combination with letrozole
[10] = Confirmatory Study PGx Population (N=374), lapatinib + letrozole
[11] = lapatinib plus letrozole arm of the confirmatory study
[12] = DQB1*0202 carriage, ALT cases, Confirmatory study
[13] = DQB1*0202 carriage, ALT controls, Confirmatory study
[14] = restricted baseline (ALT and TBL <=1xULN at baseline)
[15] = unrestricted baseline (ALT and/or TBL >1xULN at baseline)
[16] = DRB1*0701 carriage, ALT cases, Confirmatory study
[17] = DRB1*0701 carriage, ALT controls, Confirmatory study

## CS(=O)(=O)CCNCc1ccc(-c2ccc3ncnc(Nc4ccc(OCc5cccc(F)c5)c(Cl)c4)c3c2)o1 [lapatinib, N-(3 chloro-4-{[(3-fluorophenyl)methyl]oxy}phenyl)-6-[5-({[2 (methylsulfonyl)ethyl]amino}methyl)-2-furanyl]-4-quinazolinamine bis(4 methylbenzenesulfonate)monohydrate]
[1]; exploratory, 4/13 combined cases, HLA-DRB1*0701 or HLA-B*4403
  combined ALT/TBL cases with at least one of the significant HLA alleles: 31%
[1]; matched case-control, 47 cases
  ALT cases with at least one copy of HLA-DRB1*0701: 40%
[1]; matched case-control, 47 controls
  ALT controls with at least one copy of HLA-DRB1*0701: 13%
[2]; [6]
  Maximum on treatment ALT xULN: Mean(SD): 6.50(3.73) xULN
  Maximum on treatment ALT xULN: Median: 4.96 xULN
[2]; [7]
  N of ALT cases with Cholestatic injury type: 3
  N of ALT cases with Hepatocellular injury type: 12
  N of ALT cases with Mixed injury type: 9
[2]; [8]
  Maximum on treatment ALT xULN: Mean(SD): 0.66(0.19) xULN
  Maximum on treatment ALT xULN: Median: 0.65 xULN
[2]; [9]
  Maximum on treatment ALT xULN: Mean(SD): 1.53 (1.97) xULN
  Maximum on treatment ALT xULN: Median: 0.91 xULN
[2]; [10]
  Maximum on treatment ALT > 3 xULN (%): 9.4%
  Maximum on treatment ALT > 5 xULN (%): 5.1%
  Maximum on treatment ALT > 8 xULN (%): 2.4%
  Maximum on treatment TBL xULN: Mean(SD): 0.93 (1.48) xULN
  Maximum on treatment TBL xULN: Median: 0.76 xULN
[2]; [11]
  hepatobiliary adverse event cases (ALT>3x and TBL >1.5xULN, irrespective of baseline ALT), number: Fifteen
  patients adjudicated by liver experts as probable Hy's Rule cases, number: two
[3]; [12]
  Carriage: cases (%): (63%)
  Carriage: cases (n/N): 15/24
[3]; [13]
  Carriage: controls (%): (19%)
  Carriage: controls (n/N): 30/155
[3]; [14]
  combined ALT/TBL cases that carried HLA-DQB1*0202: 5/6
[3]; [15]
  combined ALT/TBL cases that were HLA-DQB1*0202 carriers: 1/6
[4]; ALT Cases > 3 xULN threshold
  HLA-DQA1*0201 Carrier: Non Cases (number): 82
  HLA-DQA1*0201 Non-Carrier: Non Cases (number): 268
[4]; ALT Cases > 3 xULN
  HLA-DQA1*0201 Carrier: Cases (number): 17
  HLA-DQA1*0201 Non-Carrier: Cases (number): 7
[4]; ALT Cases > 5 xULN threshold
  HLA-DQA1*0201 Carrier: Non Cases (number): 90
  HLA-DQA1*0201 Non-Carrier: Non Cases (number): 272
[4]; ALT Cases > 5 xULN
  HLA-DQA1*0201 Carrier: Cases (number): 9
  HLA-DQA1*0201 Non-Carrier: Cases (number): 3
[4]; ALT Cases > 8 xULN threshold
  HLA-DQA1*0201 Carrier: Non Cases (number): 93
  HLA-DQA1*0201 Non-Carrier: Non Cases (number): 274
[4]; ALT Cases > 8 xULN
  HLA-DQA1*0201 Carrier: Cases (number): 6
  HLA-DQA1*0201 Non-Carrier: Cases (number): 1
[4]; Confirmatory Study ALT Cases
  % that carry DQA1*0201, Hepatocellular: 83%
  % that carry DQA1*0201, Mixed: 78%
  N that carry DQA1*0201, Cholestatic: 0
  N that carry DQA1*0201, Hepatocellular: 10
  N that carry DQA1*0201, Mixed: 7
[4]; DQA1*0201 carriage, ALT cases (>3xULN), Confirmatory study, lapatinib plus letrozole
  Carriage: cases (n/N): 17/24
[4]; DQA1*0201 carriage, ALT controls, Confirmatory study, lapatinib plus letrozole
  Carriage: controls (n/N): 33/155
[4]; Example 1A analysis: HLA-DQA1*0201, ALT cases vs all non-case subjects, 95% CI 0.11-0.27
  PPV: 0.18
[4]; Example 1A analysis: HLA-DQA1*0201, ALT cases vs all non-case subjects, 95% CI 0.95-0.99
  NPV: 0.97
[4]; ALT > 3 xULN
  NPV (CI): 0.97 (0.95, 0.99) and 0.975 (0.948, 0.990)
  OR (CI): 7.9 (3.0, 23.3)
  PPV (CI): 0.17 (0.10, 0.26)
[4]; ALT > 5 xULN
  NPV (CI): 0.99 (0.97, 0.9977)
  OR (CI): 9.1 (2.2, 52.8)
  PPV (CI): 0.09 (0.04, 0.17)
[4]; ALT > 8 xULN
  NPV (CI): 0.9964 (0.98, 0.9999)
  OR (CI): 17.7 (2.1, 816)
  PPV (CI): 0.06 (0.02, 0.13)
[4]; confirmatory study (82/350)
  DQA1*0201 alone carriage in non-cases: 23%
[4]; lapatinib plus letrozole treated patients, FIG. 3
  cumulative incidence of ALT elevation, DQA1*0201 carriers compared with non-carriers: higher
[4]; lapatinib plus letrozole treated patients, confirmatory study
  reduction of the rate of ALT elevation on removal of DQA1*0201 carriers: more than two-thirds
[4]; of eleven cases that provided DNA
  hepatobiliary adverse event cases carrying the DQA1*0201 allele, number: six
[4]; [14]
  combined ALT/TBL cases that were HLA-DQA1*0201 carriers: 6/6
[4]; [15]
  combined ALT/TBL cases that were HLA-DQA1*0201 carriers: 1/6
[5]; [16]
  Carriage: cases (%): (67%)
  Carriage: cases (n/N): 16/24
[5]; [17]
  Carriage: controls (%): (23%)
  Carriage: controls (n/N): 35/155
[5]; [14]
  combined ALT/TBL cases that were HLA-DRB1*0701 carriers: 6/6
[5]; [15]
  combined ALT/TBL cases that were HLA-DRB1*0701 carriers: 1/6
